Laboratory results from patent publication US8497083B2, “Fructosyl amino acid oxidase” (priority 2009, dated 2013).

Biological target: fructosyl amino acid oxidase from Phaeosphaeria nodorum (PnFPOX, SEQ ID NO: 1) variant N56A (Parastagonospora nodorum, UniProt Q0UIL6, N56A)
Assay: Oxidase activity kinetics (4AA/TODB/POD), PnFPOX N56A mutant
Format: biochemical
Details: purified enzyme, 25° C., pH 7.0
Excerpt: As used herein “oxidase activity” is an enzymatic activity (Vmax) of the fructosyl amino acid oxidase to catalyze oxidation of fructosyl amino acid to generate 2-keto-D-glucose and the corresponding amino acid while utilizing oxygen as an electron acceptor. The oxidase activity may be assayed by measuring the amount of generated H2O2 by any methods known in the art, including by way of non-limiting example, reagents for H2O2 detection such as […] (4-aminoantipyrine/N,N-Bis(4-sulfobutyl)-3-methylaniline disodium salt/horseradish peroxidase) or by Pt electrode. As used herein in the context of the relative or quantitative activity, the oxidase activity is specifically defined to be the mole amount of the substrate (fructosyl amino acid) oxidized per unit time measured by the amount of generated H2O2 at 25° C. in 10 mM PPB, pH 7.0, 1.5 mM TODB, 2 U/ml horseradish peroxidase (POD), and 1.5 mM 4-aminoantipyrine (4AA). The formation of quinoneimine dye may be measured spectrophotometrically at 546 nm.
Escherichia coli BL21 (DE3) cells harboring expression vectors of N1-1 FAOD (SEQ ID NO: 2) mutants were grown in 150 ml of LB medium containing 50 μg/ml kanamycin at 37° C. After reaching an A660 value of 0.6, 0.3 mM IPTG was added and incubated at 25° C. for an additional 5 hours. The cells were collected by centrifugation and washed twice with 0.85% NaCl.aq. Then, the cells were resuspended in 10 mM Potassium Phosphate Buffer (PPB) pH 7.0 and lysed by ultrasonic homogenizer. The lysate was centrifuged at 10,000×g, 4° C. for 10 min, and the supernatant was centrifuged at 50,000 rpm, 4° C. for 60 min, then the supernatant was dialyzed against 10 mM PPB (pH 7.0). The oxidase activity was assayed at 25° C. in 10 mM PPB, pH 7.0, 1.5 mM TODB, 2 U/ml horseradish peroxidase (POD), and 1.5 mM 4-aminoantipyrine (4AA) in the presence of substrates (0.2, 0.5, 0.75, 1, 2, 5 mM f-^αVal […]). The formation of quinoneimine dye was measured spectrophotometrically at 546 nm. The dehydrogenase activity was assayed at 25° C. in 10 mM PPB (pH 7.0), 0.6 mM DCIP, and 6 mM methoxy PMS (mPMS) in the presence of substrates (0.2, 0.5, 1, 2, 5 mM f-^αVal or 5 mM f-^αVal-His).
Mutations were introduced using site-directed mutagenesis as in Example 1, and BL21 (DE3) cells were transformed with an expression vector containing wild-type or mutant PnFPOX (SEQ ID NO: 1). The cultured cells were resuspended in 10 mM PPB, pH 7.0, and lysed by sonication. The lysate was centrifuged at 10,000 g at 4° C. for 20 min, and the supernatant was centrifuged at 50,000 rpm at 4° C. for 60 min. The oxidase and dehydrogenase activities were measured as in Example 1.
BL21 (DE3) transformed with pEPN (pET28a-PnFPOX)-N56A was grown aerobically at 37° C. in LB medium (2 l) containing 50 μg kanamycin ml^−1. […]

Chain of fructosyl amino acid oxidase from Phaeosphaeria nodorum (PnFPOX, SEQ ID NO: 1) variant N56A (Q0UIL6 whole entry N56A): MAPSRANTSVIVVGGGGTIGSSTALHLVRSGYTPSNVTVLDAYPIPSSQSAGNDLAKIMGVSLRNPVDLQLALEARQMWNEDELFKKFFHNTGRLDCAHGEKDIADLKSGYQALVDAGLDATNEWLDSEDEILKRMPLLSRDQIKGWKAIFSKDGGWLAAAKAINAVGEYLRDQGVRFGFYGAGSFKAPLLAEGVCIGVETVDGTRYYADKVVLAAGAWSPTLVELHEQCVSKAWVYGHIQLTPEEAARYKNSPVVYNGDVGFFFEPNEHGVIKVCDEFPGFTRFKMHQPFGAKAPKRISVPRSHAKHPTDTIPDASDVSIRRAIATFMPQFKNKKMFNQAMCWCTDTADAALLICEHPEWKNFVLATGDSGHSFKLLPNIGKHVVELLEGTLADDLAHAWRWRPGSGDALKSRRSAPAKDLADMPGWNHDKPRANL

Structure (SMILES): CC(C)[C@H](NCC1(O)OC[C@@H](O)[C@@H](O)[C@@H]1O)C(=O)O (stereo partly shown) [f-αVal, fructosyl valine]
- Vmax: 4.39 U/mg
